The values below come from ChEMBL document CHEMBL1155289, “Stimulatory effect of apigenin-6-C-beta-L-fucopyranoside on insulin secretion and glycogen synthesis” (2009).

Assay type in all cases: functional
Experiment [1] relates to Rattus norvegicus. The experiment is described as follows: Antidiabetic activity against glucose loaded Wistar rat assessed as serum glucose level at 10 mg/kg, po after 60 mins by oral glucose tolerance test.
The test system of experiment [2] is Rattus norvegicus. As to the kind of experiment: Antidiabetic activity against glucose loaded Wistar rat assessed as serum glucose level at 10 mg/kg, po by oral glucose tolerance test.
Experiment [3] has as its system Rattus norvegicus. As to the kind of experiment: Antidiabetic activity against glucose loaded Wistar rat assessed as serum glucose level at 10 mg/kg, po after 30 mins by oral glucose tolerance test.
The test system of experiment [4] is Rattus norvegicus. The experiment is described as follows: Antidiabetic activity against glucose loaded Wistar rat assessed as serum glucose level at 10 mg/kg, po after 15 mins by oral glucose tolerance test.

For `Cc1cnc(C(=O)NCCc2ccc(S(=O)(=O)NC(=O)NC3CCCCC3)cc2)cn1` [GLIPIZIDE], the Activity in experiment [1] is 123 mg/dL; in experiment [2] it was 120 mg/dL; in experiment [3] it was 143 mg/dL; in experiment [4], 160 mg/dL.
